A word on the IC50: it is the concentration at which inhibition is half-maximal. A low value points to greater potency.

Consider 21 compounds from US10377770B2 (Novartis AG, priority 2015, dated 2019).

The assay has as its target C-Raf FL (full length CRAF with Y340E and Y341E activating mutations, co-expressed with h14-3-3 zeta) (Homo sapiens (Human), UniProt P04049, Y340E/Y341E). Briefly: In vitro Raf activity determination, AlphaScreen p-MEK readout, c-Raf (C-Raf FL). Type of assay: biochemical. As to conditions: c-Raf approximately 4 nM, ATP 1 μM, pre-incubation 60 minutes, reaction 1 hour. The text has this:
Sf9 cells co-expressing both proteins were lysed and subjected to immobilized nickel chromatography and eluted with Imidazole. A second column (StrepII binding column) was used and eluted with desthiobiotin. Protein Tags were removed using Prescission enzyme and the protein was further purified using a flowthrough step to remove tags.
C-Raf TR refers to a truncated C-Raf protein, a Δ1-324 deletion mutant. C-Raf FL refers to the full-length C-Raf protein.
Full length MEK1 with an inactivating K97R ATP binding site mutation is utilized as a RAF substrate. The MEK1 cDNA was subcloned with an N-terminal (his)6 tag into a vector for E. Coli expression. The MEK1 substrate was purified from E. Coli lysate by nickel affinity chromatography followed by anion exchange. The final MEK1 preparation was biotinylated (Pierce EZ-Link Sulfo-NHS-LC-Biotin) and concentrated.
Assay Materials: Assay buffer is 50 mM Tris, pH 7.5, 15 mM MgCl2, 0.01% Bovine Serum Albumin (BSA) and 1 mM dithiothreitol (DTT); Stop buffer is 60 mM ethylenediaminetetraacetic acid (EDTA) and 0.01% Tween® 20; b-Raf (V600E), active; biotinylated Mek, kinase dead; Alpha Screen detection kit (available from PerkinElmer™, #6760617R); Anti phospho-MEK1/2 (available from Cell Signaling Technology, Inc. #9121); 384 well low volume assay plates (White Greiner® plates).
Assay conditions: b-Raf (V600E) approximately 4 pM; c-Raf approximately 4 nM; biotinylated Mek, kinase dead approximately 10 nM; ATP 10 μM for BRAF (V600E) and 1 μM for CRAF; Pre-incubation time with compounds 60 minutes at room temperature; Reaction time 1 or 3 hours at room temperature.
Assay protocol: Raf and biotinylated Mek (kinase dead) were combined at 2× final concentrations in assay buffer (50 mM Tris, pH 7.5, 15 mM MgCl2, 0.01% BSA and 1 mM DTT) and dispensed […] per well in assay plates (Greiner white 384 well assay plates #781207) containing […] of 40× of a Raf kinase inhibitor test compound diluted in 100% DMSO. The plate was incubated for 60 minutes at room temperature. The Raf kinase activity reaction was started by the addition of […] per well of 2×ATP diluted in assay buffer. After 3 hours (b-Raf(V600E)) or 1 hour (c-Raf). The reactions were stopped and the phosphorylated product was measured using a rabbit anti-p-MEK (Cell Signaling, #9121) antibody and the Alpha Screen IgG (ProteinA) detection Kit (PerkinElmer #6760617R), by the addition of […] to the well of a mixture of the antibody (1:2000 dilution) and detection beads (1:2000 dilution of both beads) in Stop/bead buffer (25 mM EDTA, 50 mM Tris, pH 7.5, 0.01% Tween20). The additions were carried out under dark conditions to protect the detection beads from light. A lid was placed on top of the plate and incubated for 1 hour at room temperature, after which the luminescence was read on a PerkinElmer Envision instrument.
A general note: Alpha assays give light when donor and acceptor beads are brought close together.

The structures appear in SMILES notation.

Sequence of C-Raf FL (full length CRAF with Y340E and Y341E activating mutations, co-expressed with h14-3-3 zeta) (P04049 whole entry Y340E/Y341E): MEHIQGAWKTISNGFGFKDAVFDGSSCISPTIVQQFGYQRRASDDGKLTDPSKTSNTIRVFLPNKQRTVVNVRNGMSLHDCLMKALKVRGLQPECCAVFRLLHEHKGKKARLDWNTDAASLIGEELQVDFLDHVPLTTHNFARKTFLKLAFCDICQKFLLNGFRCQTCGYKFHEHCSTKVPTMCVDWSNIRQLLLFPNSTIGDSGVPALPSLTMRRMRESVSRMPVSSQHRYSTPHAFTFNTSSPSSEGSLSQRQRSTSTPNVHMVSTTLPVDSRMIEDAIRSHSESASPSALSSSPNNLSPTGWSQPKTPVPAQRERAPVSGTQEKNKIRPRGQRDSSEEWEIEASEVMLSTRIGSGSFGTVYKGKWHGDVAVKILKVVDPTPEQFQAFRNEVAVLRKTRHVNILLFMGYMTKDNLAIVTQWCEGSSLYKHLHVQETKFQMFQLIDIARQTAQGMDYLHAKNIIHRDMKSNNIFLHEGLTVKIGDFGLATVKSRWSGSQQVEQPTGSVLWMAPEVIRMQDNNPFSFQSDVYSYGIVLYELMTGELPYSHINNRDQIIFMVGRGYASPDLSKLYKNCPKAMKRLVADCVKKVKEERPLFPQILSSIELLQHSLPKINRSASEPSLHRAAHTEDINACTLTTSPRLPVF
Sequence of C-Raf FL (full length CRAF with Y340E and Y341E activating mutations, co-expressed with h14-3-3 zeta) (P63104 whole entry partner): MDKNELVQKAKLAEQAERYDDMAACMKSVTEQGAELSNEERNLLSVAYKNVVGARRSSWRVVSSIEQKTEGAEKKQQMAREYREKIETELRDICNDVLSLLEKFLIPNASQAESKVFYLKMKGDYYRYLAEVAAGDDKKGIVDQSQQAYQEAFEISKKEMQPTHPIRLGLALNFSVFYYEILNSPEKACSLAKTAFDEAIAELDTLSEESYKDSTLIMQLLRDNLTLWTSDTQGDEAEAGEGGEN

The compound `Cc1ncc(NC(=O)c2ccnc(C(C)(F)F)c2)cc1-c1ccc2c(c1)N1CCOCC[C@H]1C[C@H]2O` [Example 98, 2-(1,1-difluoroethyl)-N-(5-((5aS,7R)-7-hydroxy-1,2,5,5a,6,7-hexahydro-4H-[1,4]oxazepino[4,5-a]quinolin-10-yl)-6-methylpyridin-3-yl)isonicotinamide] had an IC50 of 0.56 nM.
`Cc1ccc(NC(=O)c2ccnc(C(F)(F)F)c2)cc1-c1cc2n(c(=O)c1)CCC1COCCN21` (racemic) [Example 94, (rac)-N-(4-methyl-3-(8-oxo-2,4,4a,5,6,8-hexahydro-1H-pyrido[2′,1′:2,3]pyrimido[6,1-c][1,4]oxazin-10-yl)phenyl)-2-(trifluoromethyl)isonicotinamide]: half-maximal inhibition (IC50) was put at 0.019 nM. Against the preceding compound, the IC50 is about 29-fold lower.
For `Cc1ccc(NC(=O)c2ccnc(C(C)(F)F)c2)cc1-c1ccc2c(c1)N1CCOCC1C(F)(CO)C2` (racemic) [Example 78, (rac)-2-(1,1-difluoroethyl)-N-(3-(5-fluoro-5-(hydroxymethyl)-1,2,4,4a,5,6-hexahydro-[1,4]oxazino[4,3-a]quinolin-9-yl)-4-methylphenyl)isonicotinamide], the IC50 turned out to be 0.02 nM. The IC50 values of the last two compounds are within 1.5-fold of each other.
Take `CCN1C(=O)C2(F)COCC[C@@H]2c2cc(-c3cc(NC(=O)c4ccnc(C(F)(F)F)c4)ccc3C)cnc21` (stereo partly drawn) [Example 339, N-(3-((10bR)-6-ethyl-4a-fluoro-5-oxo-2,4,4a,5,6,10b-hexahydro-1H-pyrano[3,4-c][1,8]naphthyridin-9-yl)-4-methylphenyl)-2-(trifluoromethyl) isonicotinamide]: the IC50 was 0.5 nM.
Consider `COC1CC2COCCN2c2cc(-c3cc(NC(=O)c4ccnc(C(C)(F)F)c4)ccc3C)cnc21` (stereo not drawn) [Example 33, 2-(1,1-difluoroethyl)-N-(3-(6-methoxy-1,2,4,4a,5,6-hexahydro-[1,4]oxazino[4,3-a][1,5]naphthyridin-9-yl)-4-methylphenyl)isonicotinamide], for which inhibition was half-maximal at 0.0082 nM (IC50).
As for `Cc1ccc(NC(=O)c2ccnc(C(F)(F)F)c2)cc1-c1cnc2c(c1)N1CCOC[C@H]1[C@H](C(C)(C)O)C2` [Example 457], the midpoint of inhibition, the IC50, lay at 0.4 nM.
Turning to `Cc1ccc(NC(=O)c2ccnc(C(C)(F)F)c2)cc1-c1ccc2c(c1)N1CCOC[C@H]1C1(COC1)C2` [Example 57, (R)-2-(1,1-difluoroethyl)-N-(4-methyl-3-(1′,2′,4′,4a′-tetrahydro-6′H-spiro[oxetane-3,5′-[1,4]oxazino[4,3-a]quinolin]-9′-yl)phenyl)isonicotinamide], the IC50 was found to be 0.011 nM.
Take `Cc1ccc(NC(=O)c2cnnc(C(F)(F)F)c2)cc1-c1ccc2c(c1)N1CCOC[C@H]1[C@](F)(CF)C2` [Example 475, N-(3-((4aS,5S)-5-fluoro-5-(fluoromethyl)-1,2,4,4a,5,6-hexahydro-[1,4]oxazino[4,3-a]quinolin-9-yl)-4-methylphenyl)-6-(trifluorometh-yl)pyridazine-4-carboxamide]: the IC50 worked out at 0.4 nM.
`Cc1ccc(NC(=O)c2ccnc(C(C)(F)F)c2)cc1-c1cc2c(nn1)OC(C)(C)[C@@H]1COCCN21` [Example 137, (S)-2-(1,1-Difluoroethyl)-N-(3-(6,6-dimethyl-6a,7,9,10-tetrahydro-6H-[1,4]oxazino[4,3-d]pyridazino[3,4-b][1,4]oxazin-2-yl)-4-methylphenyl)isonicotinamide] had an IC50 of 0.24 nM.
With `Cc1ccc(NC(=O)c2ccnc(C(C)(F)F)c2)cc1-c1cnc2c(c1)N1CCOC[C@H]1[C@@](C#N)(CF)C2` [Example 515, N-(3-((4aR,5S)-5-cyano-5-(fluoromethyl)-1,2,4,4a,5,6-hexahydro-[1,4]oxazino[4,3-a][1,5]naphthyridin-9-yl)-4-methylphenyl)-2-(1,1-difluoroethyl)iso-nicotinamide], inhibition was half-maximal at 0.1 nM (IC50).
On to `CCN1C(=O)[C@@H]2COCC[C@@]2(C)c2cc(-c3cc(NC(=O)c4ccnc(C(C)(F)F)c4)ccc3C)cnc21` (stereo in doubt) [Example 343, 2-(1,1-difluoroethyl)-N-(3-((4a,10b-trans)6-ethyl-10b-methyl-5-oxo-2,4,4a,5,6,10b-hexahydro-1H-pyrano[3,4-c][1,8]naphthyridin-9-yl)-4-methylphenyl)isonicotinamide], for which the midpoint of inhibition, the IC50, lay at 0.2 nM.
Take `CCN1C(=O)C2CCOCCC2c2cc(-c3cc(NC(=O)c4ccnc(C(F)(F)F)c4)ccc3C)cnc21` (stereo not drawn) [Example 248]: the IC50 came out at 0.5 nM.
Turning to `Cc1ccc(NC(=O)c2cnnc(C(F)(F)F)c2)cc1-c1cnc2c(c1)N1CCOC[C@H]1C[C@H]2OCCO` [Example 512, N-(3-((4aR,6R)-6-(2-hydroxyethoxy)-1,2,4,4a,5,6-hexahydro-[1,4]oxazino[4,3-a][1,5]naphthyridin-9-yl)-4-methylphenyl)-6-(trifluorometh-yl)pyridazine-4-carboxamide], inhibition was half-maximal at 0.4 nM (IC50).
Consider `Cc1ccc(NC(=O)c2ccnc(C(C)(F)F)c2)cc1-c1cc2n(c(=O)c1)CC[C@@H]1COCCN21` [Example 413, (R)-2-(1,1-difluoroethyl)-N-(4-methyl-3-(8-oxo-1,2,4,4a,5,6-hexahydro-8H-pyrido[2′,1′:2,3]pyrimido[6,1-c][1,4]oxazin-10-yl)phenyl)isonicotinamide], for which the 50% inhibitory concentration (IC50) came out at 0.2 nM.
Turning to `Cc1ccc(NC(=O)c2cncc(C(F)(F)F)c2)cc1-c1cc(F)c2c(c1)N1CCOC[C@H]1[C@@](F)(CO)C2` [Example 434, N-(3-((4aS,5R)-5,7-difluoro-5-(hydroxymethyl)-1,2,4,4a,5,6-hexahydro-[1,4]oxazino[4,3-a]quinolin-9-yl)-4-methylphenyl)-5-(trifluoromethyl)nicotinamide], the IC50 worked out at 1.3 nM.
For `Cc1ccc(NC(=O)c2ccnc(C(C)(F)F)c2)cc1-c1cnc2c(c1)N1CCOCC1C(CS(C)(=O)=O)C2` (stereo not drawn) [Example 99, 2-(1,1-difluoroethyl)-N-(4-methyl-3-(5-((methylsulfonyl)methyl)-1,2,4,4a,5,6-hexahydro-[1,4]oxazino[4,3-a][1,5]naphthyridin-9-yl)phenyl)isonicotinamide], it took 0.038 nM to reach half-maximal inhibition (IC50).
Consider `Cc1ccc(NC(=O)c2ccnc(C(C)(F)F)c2)cc1-c1cnc2c(c1)N1CCOC[C@H]1C[C@@]2(O)C(F)(F)F` (racemic) [Example 169, rac-cis-2-(1,1-difluoroethyl)-N-(3-(6-hydroxy-6-(trifluoromethyl)-1,2,4,4a,5,6-hexahydro-[1,4]oxazino[4,3-a][1,5]naphthyridin-9-yl)-4-methylphenyl)isonicotinamide], for which the IC50 is 0.032 nM.
The figure for `Cc1ccc(NC(=O)c2ccnc(C(F)(F)F)c2)cc1-c1cnc2c(c1)N1CCOC[C@H]1CC(=O)N2CC(C)(C)O` [Example 288, (R)-N-(3-(7-(2-hydroxy-2-methylpropyl)-6-oxo-2,4,4a,5,6,7-hexahydro-1H-[1,4]oxazino[4,3-d]pyrido[2,3-b][1,4]diazepin-10-yl)-4-methylphenyl)-2-(trifluoromethyl) isonicotinamide] is 0.9 nM; for `Cc1ncc(NC(=O)c2cccc(C(F)(F)F)c2)cc1-c1cc(F)c2c(c1)N1CCOC[C@@H]1[C@](F)(CO)C2` [Example 437, N-(5-((4aR,5S)-5,7-difluoro-5-(hydroxymethyl)-1,2,4,4a,5,6-hexahydro-[1,4]oxazino[4,3-a]quinolin-9-yl)-6-methylpyridin-3-yl)-3-(trifluoro-methyl)benzamide] it is 0.6 nM.
Take `Cc1ccc(NC(=O)c2ccnc(C(F)(F)F)c2)cc1-c1ccc2c(c1)N1CCOC[C@H]1C[C@H]2O` [Example 4, N-(3-((4aR,6R)-6-hydroxy-1,2,4,4a,5,6-hexahydro-[1,4]oxazino[4,3-a]quinolin-9-yl)-4-methylphenyl)-2-(trifluoromethyl)isonicotinamide]: the IC50 came to 0.0062 nM.
With `Cc1ccc(NC(=O)c2cnnc(C(F)(F)F)c2)cc1-c1cc2c(cc1F)C[C@](F)(CO)[C@H]1COCCN21` [Example 477, N-(3-((4aR,5R)-5,8-difluoro-5-(hydroxymethyl)-1,2,4,4a,5,6-hexahydro-[1,4]oxazino[4,3-a]quinolin-9-yl)-4-methylphenyl)-6-(trifluoromethyl) pyridazine-4-carboxamide], the IC50 turned out to be 0.1 nM.
